The numbers were not newly measured in article PMC2219267 (The Journal of General Physiology, 1996), which cites them from elsewhere.

The structures appear in SMILES notation.

For this data set, the target named is T1, band 3 (Homo sapiens, UniProt P02730).
T1 sequence (P02730 1-911): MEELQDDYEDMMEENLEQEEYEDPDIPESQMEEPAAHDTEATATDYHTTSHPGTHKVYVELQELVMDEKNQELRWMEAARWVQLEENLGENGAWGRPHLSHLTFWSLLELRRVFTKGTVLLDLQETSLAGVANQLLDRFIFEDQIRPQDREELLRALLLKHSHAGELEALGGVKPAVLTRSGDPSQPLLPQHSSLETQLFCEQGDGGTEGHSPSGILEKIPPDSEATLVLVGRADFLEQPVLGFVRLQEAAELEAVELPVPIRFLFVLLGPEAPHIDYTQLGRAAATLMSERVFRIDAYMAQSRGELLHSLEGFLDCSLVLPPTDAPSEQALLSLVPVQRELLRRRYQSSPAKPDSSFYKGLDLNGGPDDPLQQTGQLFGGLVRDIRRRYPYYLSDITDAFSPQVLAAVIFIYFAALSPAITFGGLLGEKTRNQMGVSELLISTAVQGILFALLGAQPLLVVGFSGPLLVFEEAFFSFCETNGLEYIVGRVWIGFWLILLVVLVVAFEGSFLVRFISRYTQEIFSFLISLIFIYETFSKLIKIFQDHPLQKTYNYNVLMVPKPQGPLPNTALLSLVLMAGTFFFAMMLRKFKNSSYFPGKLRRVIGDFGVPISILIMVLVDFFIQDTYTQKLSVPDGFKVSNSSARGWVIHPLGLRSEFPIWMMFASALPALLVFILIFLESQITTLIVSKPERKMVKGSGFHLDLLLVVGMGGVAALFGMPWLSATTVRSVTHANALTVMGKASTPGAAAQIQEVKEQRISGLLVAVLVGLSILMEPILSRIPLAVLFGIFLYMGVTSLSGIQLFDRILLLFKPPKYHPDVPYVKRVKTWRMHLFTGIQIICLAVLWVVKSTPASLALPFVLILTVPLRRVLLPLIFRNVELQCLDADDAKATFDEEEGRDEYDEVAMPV
Conditions: cited from earlier work.

Regarding `[I-].[K+]` [iodide, potassium iodide], the “transport rate relative to Cl-” value (0°C, pH 7.4, ref Dalmark and Wieth, 1972) is listed as 260 times slower. Moreover, for the setting “ref Bjerrum (1992)”, the “1/R, ratio of dissociation constants alkaline/neutral state” value was 35.8; the “R = K++I/K+I, ratio of I- dissociation constants for neutral and alkaline forms” value is 0.0279.
